Source: PMC11882969 (Nature Communications, 2025)
Where two headings read alike, the source gives them in different places.

Key:
hCB1 = hCB1 (Homo sapiens, UniProt P21554); assay: bioSensAll ebBRET signaling profiling, hCB1; assay type: cell-based; parameters: host or cells: HEK293SL cells, transient PEI transfection; details: for Barr2+GRK2 hCB1 response: Barr2+GRK2 biosensor; for Gi1 hCB1 / GoB hCB1: single replicate values, FigS6a; for EC50: read-out: EC50 [95% CI]; for Emax: normalized to CP-55,940
hCB1, sequence (P21554 whole entry): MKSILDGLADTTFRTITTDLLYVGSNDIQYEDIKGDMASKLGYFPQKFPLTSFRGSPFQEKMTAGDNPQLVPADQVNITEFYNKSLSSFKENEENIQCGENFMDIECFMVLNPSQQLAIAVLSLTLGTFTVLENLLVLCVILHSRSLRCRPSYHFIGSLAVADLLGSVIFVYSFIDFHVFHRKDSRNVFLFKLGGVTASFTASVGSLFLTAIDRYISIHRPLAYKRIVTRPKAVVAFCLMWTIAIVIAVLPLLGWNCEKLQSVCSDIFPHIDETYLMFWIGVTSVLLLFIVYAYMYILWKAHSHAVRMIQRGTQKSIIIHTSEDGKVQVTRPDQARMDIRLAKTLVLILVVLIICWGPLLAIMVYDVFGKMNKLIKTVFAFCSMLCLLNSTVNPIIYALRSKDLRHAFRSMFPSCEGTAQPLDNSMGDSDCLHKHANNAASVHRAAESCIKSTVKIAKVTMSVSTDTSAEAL

CB1 (rCB1) [1] = target: T1, CB1 (rCB1) (Rattus norvegicus, UniProt P20272); assay: Radioligand competition binding, [3H]-CP-55,940, rat brain membranes
T1 sequence (P20272 whole entry): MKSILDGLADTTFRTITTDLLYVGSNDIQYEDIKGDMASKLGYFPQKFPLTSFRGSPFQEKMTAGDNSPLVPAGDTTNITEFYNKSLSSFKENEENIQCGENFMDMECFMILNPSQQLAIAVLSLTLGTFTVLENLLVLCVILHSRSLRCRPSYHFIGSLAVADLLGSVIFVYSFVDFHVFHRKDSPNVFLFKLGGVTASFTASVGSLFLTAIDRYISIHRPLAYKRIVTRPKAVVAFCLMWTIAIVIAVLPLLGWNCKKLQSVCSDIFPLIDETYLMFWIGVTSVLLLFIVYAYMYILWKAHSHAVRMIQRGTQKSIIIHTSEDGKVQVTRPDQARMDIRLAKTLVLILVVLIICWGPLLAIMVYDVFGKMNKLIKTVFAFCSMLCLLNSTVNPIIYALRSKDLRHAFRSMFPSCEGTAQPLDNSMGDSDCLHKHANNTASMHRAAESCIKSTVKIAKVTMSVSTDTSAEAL

CB1 (rCB1) [2] = target: T1, CB1 (rCB1); assay: Single-point radioligand displacement screen; assay type: binding; details: 10 µM, 1 µM or 300 nM by cell colour (not visible)

Structure (SMILES): Cc1nn(Cc2ccc(Cl)cc2)c(C)c1C(=O)OCC1CSc2ccccc2O1 (centres unmarked) [‘5463]
- Barr2+GRK2 hCB1 response (hCB1; Log [Compound] (M) -4.22186): -7.036
- Barr2+GRK2 hCB1 response (hCB1; Log [Compound] (M) -4.63927): -40.2196
- Barr2+GRK2 hCB1 response (hCB1; Log [Compound] (M) -5.05788): -35.4335
- Barr2+GRK2 hCB1 response (hCB1; Log [Compound] (M) -5.47381): -41.4959
- Barr2+GRK2 hCB1 response (hCB1; Log [Compound] (M) -5.89285): -45.6439
- Barr2+GRK2 hCB1 response (hCB1; Log [Compound] (M) -6.31878): -47.8774
- Barr2+GRK2 hCB1 response (hCB1; Log [Compound] (M) -6.72585): -53.9398
- Barr2+GRK2 hCB1 response (hCB1; Log [Compound] (M) -7.14267): -43.7294
- Barr2+GRK2 hCB1 response (hCB1; Log [Compound] (M) -7.55284): -45.9629
- Barr2+GRK2 hCB1 response (hCB1; Log [Compound] (M) -8): -54.2588
- Barr2+GRK2 hCB1 response (hCB1; Log [Compound] (M) -8.22186): -7.036
- Barr2+GRK2 hCB1 response (hCB1; Log [Compound] (M) -8.39794): -23.3088
- Barr2+GRK2 hCB1 response (hCB1; Log [Compound] (M) -8.68787): -41.1769
- Barr2+GRK2 hCB1 response (hCB1; Log [Compound] (M) -9.15521): -53.6207
- Barr2+GRK2 hCB1 response (hCB1; Log [Compound] (M) -9.61989): -38.9433
- Barr2+GRK2 hCB1 response (hCB1; Log [Compound] (M) -10.0969): -52.3444
- Barr2+GRK2 hCB1 response (hCB1; Log [Compound] (M) -10.5529): -37.0289
- Barr2+GRK2 hCB1 response (hCB1; Log [Compound] (M) -11.0177): -49.4727
- Barr2+GRK2 hCB1 response (hCB1; Log [Compound] (M) -11.4949): -43.0913
- Barr2+GRK2 hCB1 response (hCB1; Log [Compound] (M) -11.9208): -24.266
- Barr2+GRK2 hCB1 response (hCB1; Log [Compound] (M) -12.3979): -7.993
- Barr2+GRK2 hCB1 response (hCB1; Log [Compound] (M) -12.8861): -18.5227
- Barr2+GRK2 hCB1 response (hCB1; Log [Compound] (M) -13.3979): 10.832
- Gi1 hCB1 (hCB1; Log [Compound] (M) -4.22186): 28.0981
- GoB hCB1 (hCB1; Log [Compound] (M) -4.22186): 24.5257
- Gi1 hCB1 (hCB1; Log [Compound] (M) -4.63927): 21.0665
- GoB hCB1 (hCB1; Log [Compound] (M) -4.63927): 14.8206
- Gi1 hCB1 (hCB1; Log [Compound] (M) -5.05788): 16.6796
- GoB hCB1 (hCB1; Log [Compound] (M) -5.05788): 10.4802
- Gi1 hCB1 (hCB1; Log [Compound] (M) -5.47381): 14.3358
- GoB hCB1 (hCB1; Log [Compound] (M) -5.47381): 11.0879
- Gi1 hCB1 (hCB1; Log [Compound] (M) -5.89285): 7.716
- GoB hCB1 (hCB1; Log [Compound] (M) -5.89285): 6.331
- Gi1 hCB1 (hCB1; Log [Compound] (M) -6.31878): 3.392
- GoB hCB1 (hCB1; Log [Compound] (M) -6.31878): 2.3203
- Gi1 hCB1 (hCB1; Log [Compound] (M) -6.72585): -0.6618
- GoB hCB1 (hCB1; Log [Compound] (M) -6.72585): -6.013
- Gi1 hCB1 (hCB1; Log [Compound] (M) -7.14267): -2.705
- GoB hCB1 (hCB1; Log [Compound] (M) -7.14267): -6.777
- Gi1 hCB1 (hCB1; Log [Compound] (M) -7.55284): -2.958
- GoB hCB1 (hCB1; Log [Compound] (M) -7.55284): -3.8083
- Gi1 hCB1 (hCB1; Log [Compound] (M) -8): -2.752
- GoB hCB1 (hCB1; Log [Compound] (M) -8): -8.791
- Gi1 hCB1 (hCB1; Log [Compound] (M) -8.22186): 6.512
- GoB hCB1 (hCB1; Log [Compound] (M) -8.22186): 0.4626
- Gi1 hCB1 (hCB1; Log [Compound] (M) -8.39794): -3.021
- GoB hCB1 (hCB1; Log [Compound] (M) -8.39794): -7.2806
- Gi1 hCB1 (hCB1; Log [Compound] (M) -8.68787): 0.4468
- GoB hCB1 (hCB1; Log [Compound] (M) -8.68787): -0.5617
- Gi1 hCB1 (hCB1; Log [Compound] (M) -9.15521): -1.422
- GoB hCB1 (hCB1; Log [Compound] (M) -9.15521): -2.124
- Gi1 hCB1 (hCB1; Log [Compound] (M) -9.61989): -0.7093
- GoB hCB1 (hCB1; Log [Compound] (M) -9.61989): -5.475
- Gi1 hCB1 (hCB1; Log [Compound] (M) -10.0969): -1.0102
- GoB hCB1 (hCB1; Log [Compound] (M) -10.0969): -3.201
- Gi1 hCB1 (hCB1; Log [Compound] (M) -10.5529): -0.3926
- GoB hCB1 (hCB1; Log [Compound] (M) -10.5529): -3.652
- Gi1 hCB1 (hCB1; Log [Compound] (M) -11.0177): -0.8518
- GoB hCB1 (hCB1; Log [Compound] (M) -11.0177): -4.381
- Gi1 hCB1 (hCB1; Log [Compound] (M) -11.4949): -1.279
- GoB hCB1 (hCB1; Log [Compound] (M) -11.4949): -3.965
- Gi1 hCB1 (hCB1; Log [Compound] (M) -11.9208): -2.99
- GoB hCB1 (hCB1; Log [Compound] (M) -11.9208): -2.853
- Gi1 hCB1 (hCB1; Log [Compound] (M) -12.3979): -0.25
- GoB hCB1 (hCB1; Log [Compound] (M) -12.3979): -4.034
- Gi1 hCB1 (hCB1; Log [Compound] (M) -12.8861): -2.879
- GoB hCB1 (hCB1; Log [Compound] (M) -12.8861): -4.451
- Gi1 hCB1 (hCB1; Log [Compound] (M) -13): -0.7885
- GoB hCB1 (hCB1; Log [Compound] (M) -13): -4.468
- Gi1 hCB1 (hCB1; Log [Compound] (M) cell empty): 0.7319
- GoB hCB1 (hCB1; Log [Compound] (M) cell empty): -2.437
- pEC50 [95% CI] (hCB1; hCB1 Gi1): 5.3 [3.4 – 5.8]
- pEC50 [95% CI] (hCB1; hCB1 GoB): 5.1 [6.0]
- EC50 (hCB1; hCB1 Gi1): 4.94 µM
- EC50 (hCB1; hCB1 GoB): 7.47 µM
- Emax (hCB1; read-out: Emax [95% CI], hCB1 Gi1): 31%
- Emax (hCB1; read-out: Emax [95% CI], hCB1 GoB): 32%
- pKi [95% CI] (CB1 (rCB1) [1]; rCB1): 6.1 [5.8 – 6.4]
- Ki (CB1 (rCB1) [1]; read-out: Ki [95% CI], rCB1, [3H]-CP-55,940): 0.825 µM
- % 1H-CP-55,940 displacement (mean) from single point screen (CB1 (rCB1) [2]): 81.83%
